# What was measured:
# PC3 cells [1] = experiment: Cytokine production by treated PC3 cells (ELISA); type: cell-based, Human; conditions: 50 μM, 24 h
# Description: Cancer cells recruit several pathways to evade elimination by the immune system (Kim et al., Immunology 121:1-14, 2007). Several mechanisms by which tumor cells escape immunity include upregulation of inhibitory molecules, production of immunosuppressive cytokines, and downregulation of costimulatory molecules (Rabinovich et al., Annu. Rev. Immunol. 25:267-296, 2007). Dendritic cells (DCs), the major players for the initiation of a specific anti-tumor T-cell response, are potential target to tumor-mediated immunosuppression. (Gabrilovich et al., Nat. Med. 2:1096-1103, 1996; Radmayr et al., Int. J. Cancer 63:627-632, 1995; Orsini et al., Cancer Res. 63:4497-4506, 2003.) Lactic acid secretion in highly proliferative glycolytic tumor has the ability to induce alteration in antigen phenotype and functional activity of DCs, which contributes to the suppression of local immunity (Gottfried et al. 2006). Tumor derived lactic acid inhibit the differentiation of monocytes to DCs, impair DC activation and antigen expression and suppress the proliferation, cytokine production and cytotoxic activity of T cells (Fischer et al., Blood 109:3812-3819, 2007). After observing significant and very selective reduction in lactate levels in PCa cells by MITO-DCA, the impact of the reduced lactate producing PC3 cell supernatants on DCs was investigated. […]
# Solubility study = type: physicochemical
# Procedure: Solubility of MITO-DCA in water was checked by preparing different concentration of MITO-DCA ranging from 2 μM to 5 mM in DMSO (0.1-2.5%)-phosphate buffered saline (PBS). At all concentrations, MITO-DCA was transparent.
# PC3 cells [2] = experiment: Annexin V/PI apoptosis detection by flow cytometry; type: cell-based, Human; conditions: 50 μM
# Procedure: In order to determine whether the enhanced activity of MITO-DCA upon targeting this compound to the mitochondria of cells was due to apoptosis rather than necrosis, an ALEXA FLUOR™ 488-Annexin-V and propidium iodide (PI) cell staining in PC3 and MSC cells was carried out and data were analyzed using flow cytometry (FIG. 4B). As controls, etoposide treated cells were used as early apoptosis population and H2O2 treated cells were marked as late apoptotic or necrotic population. […] There were no late apoptotic or necrotic cells observed with these compounds.
# PC3 and MSC cells were seeded at a density of 1×10^6 cells/mL on each well of a six well plate and allowed to grow overnight. Cells were treated with 50 μM Na-DCA, 150 μM TPP-DCA, and 150 μM MITO-DCA for 12 h at 37° C. As positive controls, etoposide (100 μM, incubation time: 12 h) for apoptosis and H2O2 (1 mM, incubation time: 45 min) for necrosis were used. The cells were trypsinized, repeatedly washed, and centrifuged at 1,800 RPM for 3 min, and the supernatants were discarded. Cell density was determined and cells were resuspended in 1× annexin-binding buffer to ˜1×10^6 cells/mL preparing a sufficient volume to have 100 µL per assay. To 100 μL of cell suspension, 5 μL ALEXA FLUOR™ 488 annexin V and 1 µL 100 μg/mL PI working solution were added and incubated for 15 min at room temperature. After the incubation period, 400 μL 1× annexin-binding buffer was added to each sample, samples were gently mixed keeping the samples on ice and the samples were analyzed on the flow cytometer immediately.
structure (smiles),measurement,setting,value
O=C(CCCCC[P+](c1ccccc1)(c1ccccc1)c1ccccc1)NC(COC(=O)C(Cl)Cl)(COC(=O)C(Cl)Cl)COC(=O)C(Cl)Cl.[Br-] [MITO-DCA],"Levels of IL-6, IL-10 and TNF-α from PC3 cells, compared with TPP-DCA or Na-DCA",PC3 cells [1],higher
same,Solubility in water (appearance of solution),Solubility study; 2 μM to 5 mM in DMSO (0.1-2.5%)-phosphate buffered saline (PBS),transparent
same,Solubility in an organic solvent,Solubility study; compared with DCA,far higher than that of DCA
same,Apoptosis (annexin V/PI),PC3 cells [2],complete early apoptosis
